Patent US20140274995A1, “PARENTERAL CEFTOLOZANE ANTIBIOTIC COMPOSITIONS” (Cubist Pharmaceuticals, Inc., priority 2013, published 2014)

Key:
[1] = Residual rate of ceftolozane without stabilizing agent after 3 days at 70° C., HPLC; format: physicochemical; conditions: 100 mg of ceftolozane, no stabilizing agent
[2] = Comparison between stabilizing reagents, lyophilized ceftolozane samples stored at 60° C. for 7 days, HPLC purity; format: physicochemical; conditions: without any stabilizing agent

residual rate [1]: 51.2% | overall decrease in purity [2]: 5.88%
SMILES: Cn1c(N)c(NC(=O)NCCN)c[n+]1CC1=C(C(=O)[O-])N2C(=O)[C@@H](NC(=O)/C(=N\OC(C)(C)C(=O)O)c3nsc(N)n3)[C@H]2SC1 [Ceftolozane, (6R,7R)-3-[(5-amino-4-{[(2-aminoethyl)carbamoyl]amino}-1-methyl-1H-pyrazol-2-ium-2-yl)methyl]-7-({(2Z)-2-(5-amino-1,2,4-thiadiazol-3-yl)-2-[(1-carboxy-1-methylethoxy)imino]acetyl}amino)-8-oxo-5-thia-1-azabicyclo[4.2.0]oct-2-ene-2-carboxylate]
